Experimental data from patent US20190105367A1, “ANTIMICROBIAL 4-OXOQUINOLIZINES” (Emergent Product Development Gaithersburg Inc., priority 2011, published 2019).
In brackets after ≈: the same amount, converted by molar mass. Where two headings read alike, the source gives them in different places.

Columns and labels:
[1] = system: S. aureus 25923 HS; assay: MIC, standard panel of Gram-positive and Gram-negative strains (Example 2); assay type: cell-based; conditions: Staphylococcus aureus, read-out: MIC S. aureus 25923 HS
[2] = system: S. aureus 101; assay: as above; assay type: cell-based; conditions: Staphylococcus aureus
[3] = system: E. faecium 19434; assay: as above; assay type: cell-based; conditions: Enterococcus faecium
[4] = system: E. cloacae 13047; assay: as above; assay type: cell-based, Enterobacter cloacae; conditions: Enterobacter cloacae, 13047; read-out: MIC E. cloacae 13047
[5] = system: A. baumanii 19606; assay: as above; assay type: cell-based; conditions: Acinetobacter baumannii
[6] = system: GN31 Acinetobacter baumannii antibiotic susceptible isolate; assay: Chequerboard synergy with polymyxin B, FICI (Example 6); assay type: cell-based
Text: (§1) A chequerboard technique was used to identify possible synergistic or antagonistic interactions between the 4-oxoquinolizines compounds, levofloxacin and polymyxin B. Levofloxacin was included as a control. […] Final dilutions were made in Mueller-Hinton broth, the specific test medium used for MIC determinations according to CLSI guidelines (CLSI. Methods for Dilution Antimicrobial Susceptibility Tests for Bacteria That Grow Aerobically; Approved Standard-Eighth Edition (2009). CLSI Document M07-A8. CLSI, Wayne, Pa. 19087-1898, USA.). The test medium used was a cation-adjusted Mueller-Hinton Broth II (Becton Dickinson UK Ltd., Oxford Science Park, Oxford, UK, OX4 4DQ).
(§2) The compounds 2, 33 and 35, as well as levofloxacin were tested in combination with polymyxin B on the following isolates: GN31 Acinetobacter baumannii—antibiotic susceptible clinical isolate, GN52 Acinetobacter baumannii—levofloxacin resistant clinical isolate, GN56 Acinetobacter baumannii—levofloxacin resistant clinical isolate, GN48 Klebsiella pneumoniae—NCTC 13443—NDM-1-metallo-β-lactamase and GN10 Pseudomonas aeruginosa—ATCC 27853—antibiotic susceptible reference isolate. All isolates are from the collection maintained at Quotient Bioresearch Ltd., Cambridge, UK.
(§3) The MIC values for the compounds and polymyxin B and levofloxacin were determined by broth microdilution following CLSI guidelines, and the MICs of agents in combination were determined as described by Pillai et. al (Pillai S K, Moellering R C Jr, Eliopoulis G M; Antimicrobial Combinations in Antibiotics in Laboratory Medicine 5th Edition (V. Lorian Ed) (2005) p 365-440). Initial MIC results were used to determine the microtiter plate patterns for the chequerboards. A suitable doubling dilution concentration range was selected such that the combination antibiotic range was at least two concentrations above and four concentrations below the MIC for each isolate. A fixed range of 0.008 to 8 mg/L was tested for polymyxin B except in the case of A. baumannii GN31 where a range of 0.004 to 4 mg/L was tested when in combination with the compounds 2, 33 and 35 as well as levofloxacin.
(§4) From the raw data, fractional inhibitory concentration indices (FICI) were determined for the compounds of the invention and levofloxacin together with polymyxin B for each isolate as follows:
(§5) FICX=concentration of the combination antibiotic in a particular row MIC of the combination drug alone
(§6) FICY=MIC of polymyxin B in combination[…]MIC of the polymyxin B alone
(§7) Additionally isobolograms were created to represent the same data visually. Here, the MIC of polymyxin B was plotted against every concentration of the combination antibiotic up to the MIC.

[7] = system: GN48 Klebsiella pneumoniae NCTC 13443 NDM-1-β-lactamase producing isolate; assay: as above; assay type: cell-based
Text: as §1, §2, §3, §4, §5, §6, §7

[8] = system: GN52 Acinetobacter baumannii levofloxacin resistant clinical isolate; assay: as above; assay type: cell-based
Text: as §1, §2, §3, §4, §5, §6, §7

[9] = system: GN56 Acinetobacter baumannii levofloxacin resistant clinical isolate; assay: as above; assay type: cell-based
Text: as §1, §2, §3, §4, §5, §6, §7

[10] = Cytotoxicity (Example 7); assay type: cell-based; conditions: human, HEPG2 V1 cells
Description: The 4-oxoquinolizine compounds of the invention preferably have a low cytotoxicity against human cells. […].
Cytotoxicity was determined for the instant 4-oxoquinolizine compounds which show low cytotoxicity. (see Table 17 following). […]

[11] = system: A. baumannii A390; assay: MIC without and with sub-inhibitory polymyxin B (Example 4); assay type: cell-based, Acinetobacter baumannii; conditions: +0.06 μg/ml PB, 2nd experiment; for MIC without PB/MIC + PB: A. baumannii A390; for MIC: Acinetobacter baumannii, A390, A. baumannii A390, read-out: MIC
[12] = system: A. baumannii A472; assay: as above; assay type: cell-based, Acinetobacter baumannii; conditions: for MIC without PB/MIC + PB: A. baumannii A472, ratio; for MIC: Acinetobacter baumannii
[13] = system: A. baumannii A472; assay: Preliminary MBC without and with sub-inhibitory polymyxin B (Example 4); assay type: cell-based, Acinetobacter baumannii; conditions: Acinetobacter baumannii, preliminary MBC
[14] = system: A. baumannii A14; assay: MIC without and with sub-inhibitory polymyxin B (Example 4); assay type: cell-based, Acinetobacter baumannii; conditions: 2nd experiment
[15] = system: S. aureus 25923; assay: MIC, standard panel of Gram-positive and Gram-negative strains (Example 2); assay type: cell-based; conditions: Staphylococcus aureus
[16] = system: S. epidermis 12228; assay: as above; assay type: cell-based, Staphylococcus epidermis; conditions: Staphylococcus
[17] = system: E. faecalis 29212; assay: as above; assay type: cell-based, Enterococcus faecalis
[18] = system: S. aureus SMITH; assay: MIC, panel of quinolone-resistant strains (Example 2); assay type: cell-based; conditions: Staphylococcus aureus, read-out: MIC S. aureus SMITH
[19] = system: S. pneumoniae 49619; assay: as above; assay type: cell-based, Streptococcus pneumoniae
[20] = in combination with polymyxin B
[21] = polymyxin B with the named antibiotic
[22] = A472, A. baumannii A472, +[…] PB, 2nd experiment, read-out: MIC
[23] = A472, read-out: MIC +[…] PB, A. baumannii A472, +[…] polymyxin B, 1st experiment
[24] = A472, A. baumannii A472, +[…] PB, 2nd experiment, read-out: MBC
[25] = A472, read-out: MBC +[…] PB, A. baumannii A472, +[…] polymyxin B, 1st experiment
[26] = A. baumannii A14, +0.06 μg/ml PB
[27] = Acinetobacter baumannii, A14, A. baumannii A14, without PB, read-out: MIC

Structure (SMILES): Cc1c(-c2cc(F)c(N)cc2F)ccn2c(=O)c(C(=O)O)cc(C3CC3)c12 [Compound 2, 8-(4-amino-2,5-difluorophenyl)-1-cyclopropyl-9-methyl-4-oxo-4H-quinolizine-3-carboxylic acid]
- MIC [1]: 0.125 mg/L (≈ 0.338 µM)
- MIC [2]: 0.125 mg/L (≈ 0.338 µM)
- MIC [3]: 0.5 mg/L (≈ 1.35 µM)
- MIC [4]: 0.25 mg/L (≈ 0.675 µM)
- MIC [5]: 0.06 mg/L (≈ 0.162 µM)
- Combination drug MIC alone [6]: 0.06 mg/L
- FICx [6]: 0.25
- FICy [6]: 0.24
- FICI ([6]; combination with polymyxin B): 0.49
- Synergy ([6]; combination with polymyxin B): Synergy (Synergy (FICI <0.5))
- Combination drug concentration in combination [6, 20]: 0.015 mg/L
- Polymyxin B MIC in combination [6, 21]: 0.06 mg/L
- Combination drug MIC alone [7]: 32 mg/L
- FICx [7]: 0.13
- FICy [7]: 0.50
- FICI ([7]; combination with polymyxin B): 0.63
- Synergy ([7]; combination with polymyxin B): Partial synergy (partial synergy/addition (FICI 0.51 to 0.75))
- Synergy ([7]; combination with polymyxin B, listed as compound 2): partial synergy
- Combination drug concentration in combination [7, 20]: 4 mg/L
- Polymyxin B MIC in combination [7, 21]: 0.25 mg/L
- Combination drug MIC alone [8]: 4 mg/L
- FICx [8]: 0.25
- FICy [8]: 0.24
- FICI ([8]; combination with polymyxin B): 0.49
- Synergy ([8]; combination with polymyxin B): Synergy (Synergy (FICI <0.5))
- Combination drug concentration in combination [8, 20]: 1 mg/L
- Polymyxin B MIC in combination [8, 21]: 0.12 mg/L
- Combination drug MIC alone [9]: 16 mg/L
- FICx [9]: 0.06
- FICy [9]: 0.50
- FICI ([9]; combination with polymyxin B): 0.56
- Synergy ([9]; combination with polymyxin B): Partial synergy (partial synergy/addition (FICI 0.51 to 0.75))
- Combination drug concentration in combination [9, 20]: 1 mg/L
- Polymyxin B MIC in combination [9, 21]: 0.25 mg/L
- IC50 [10]: 250 µM
- MIC without PB/MIC + PB [11]: ≥512
- MIC [11]: ≤ 0.03 mg/L
- MIC without PB/MIC + PB ([12]; 1st experiment): ≥128
- MIC [12, 22]: ≤ 0.03 mg/L
- MIC [12, 23]: ≤ 0.03 mg/L
- MBC [13, 24]: ≤ 0.03 mg/L
- MBC [13, 25]: ≤ 0.03 mg/L
- MIC [14, 26]: 0.06 mg/L (≈ 0.162 µM)
- MIC without PB/MIC + PB [14, 26]: 256
- MIC [14, 27]: 16 mg/L (≈ 43.2 µM)

Structure (SMILES): Cc1c(-c2ccc(CN)c(F)c2)ccn2c(=O)c(C(=O)O)cc(C3CC3)c12 [Compound 4, 8-(3-fluoro-4-aminomethyl-phenyl)-1-cyclopropyl-9-methyl-4-oxo-quinolizine-3-carboxylic acid]
- MIC [15]: 0.06 mg/L (≈ 0.164 µM)
- MIC [1]: 0.125 mg/L (≈ 0.341 µM)
- MIC [16]: 0.06 mg/L (≈ 0.164 µM)
- MIC ([17]; Enterococcus faecalis, 29212; read-out: MIC E. faecalis 29212): 0.125 mg/L (≈ 0.341 µM)
- MIC [4]: 0.06 mg/L (≈ 0.164 µM)
- MIC [5]: 0.25 mg/L (≈ 0.682 µM)
- MIC ([18]; CIP R): 0.125 mg/L (≈ 0.341 µM)
- MIC ([19]; Streptococcus pneumoniae, 49619, LEV S, read-out: MIC S. pneumoniae 49619): 0.125 mg/L (≈ 0.341 µM)
- IC50 [10]: 60 µM
- MIC without PB/MIC + PB [11]: 64
- MIC [11]: 0.5 mg/L (≈ 1.36 µM)
- MIC without PB/MIC + PB ([12]; 1st experiment): 4
- MIC [12, 22]: 0.125 mg/L (≈ 0.341 µM)
- MIC [12, 23]: 1 mg/L (≈ 2.73 µM)
- MBC [13, 24]: 0.125 mg/L (≈ 0.341 µM)
- MBC [13, 25]: 1 mg/L (≈ 2.73 µM)
- MIC [14, 26]: 2 mg/L (≈ 5.46 µM)
- MIC without PB/MIC + PB [14, 26]: 16
- MIC [14, 27]: 32 mg/L (≈ 87.3 µM)

Structure (SMILES): Cc1c(-c2ccc(CN)cc2)ccn2c(=O)c(C(=O)O)cc(C3CC3)c12 [Compound 5, 8-(4-aminomethyl-phenyl)-1-cyclopropyl-9-methyl-4-oxo-quinolizine-3-carboxylic acid]
- MIC [15]: 0.03 mg/L (≈ 0.0861 µM)
- MIC [1]: 0.125 mg/L (≈ 0.359 µM)
- MIC [16]: 0.06 mg/L (≈ 0.172 µM)
- MIC ([17]; Enterococcus faecalis, 29212, read-out: MIC E. faecalis 29212): 0.125 mg/L (≈ 0.359 µM)
- MIC [4]: 0.06 mg/L (≈ 0.172 µM)
- MIC [5]: 0.25 mg/L (≈ 0.718 µM)
- MIC [18]: 0.125 mg/L (≈ 0.359 µM)
- MIC ([19]; Streptococcus pneumoniae, 49619, read-out: MIC S. pneumoniae 49619): 0.125 mg/L (≈ 0.359 µM)
- MIC without PB/MIC + PB [11]: 4
- MIC [11]: 2 mg/L (≈ 5.74 µM)
- MIC without PB/MIC + PB ([12]; 1st experiment): 8
- MIC [12, 23]: 1 mg/L (≈ 2.87 µM)
- MBC [13, 25]: 1 mg/L (≈ 2.87 µM)
- MIC [14, 26]: 4 mg/L (≈ 11.5 µM)
- MIC without PB/MIC + PB [14, 26]: 4
- MIC [14, 27]: 16 mg/L (≈ 45.9 µM)
